Records with an inconclusive call do not appear.
Test system: M. tuberculosis H37Rv growth inhibition, 7H9 media
Assay: M. tuberculosis growth inhibition, HTS (AID 449762);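 also: bacterial growth assessed after seven days of incubation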
Conditions: not given

| SMILES | IC50 |
| --- | --- |
| Cc1nc2sccn2c(=O)c1CCN1CCC(=C(c2ccccc2)c2ccc(F)cc2)CC1 | 44.7 µM |
| CC[n+]1c(/C=C/N(C)c2ccccc2)n(-c2ccccc2)c2ccc(-c3nc4ccccc4s3)cc21 | 0.87 µM |
| Cc1ccc(NC(=O)Cc2ccc(-c3ccccc3)cc2)nc1 | 25 µM |
| Cc1ccc(CN2CCN(/N=C/c3ccc(Cl)c([N+](=O)[O-])c3)CC2)cc1 | 22.7 µM |
| COc1ccc(C)cc1Nc1n[n+](-c2ccccc2)c(-c2c(Cl)cccc2Cl)s1 | 19.6 µM |
| COc1ccc(N(CC(=O)Nc2cc(Cl)ccc2C)S(=O)(=O)c2c(C)n[nH]c2C)cc1 | 45.8 µM |
| CC(C)(C)C1CCc2nc(NC(=O)Cc3cn4ccsc4n3)sc2C1 (configuration not stated) | 15.5 µM |
| Cc1ccccc1Nc1nc(N)nc(COC(=O)c2ccc([N+](=O)[O-])o2)n1 | 0.49 µM |
| C/C(=C1/C(=O)N(c2ccc([N+](=O)[O-])cc2)N=C1c1ccccc1)N(C)C | 21.8 µM |
| Cc1ccc(/C=N/NC(=S)NC(C)C)o1 | 42.4 µM |
| Cc1cccc(/C=c2\s/c(=C\C(=O)C(C)(C)C)[nH]c2=O)c1 | 5.66 µM |
| CCc1ccc2c(c1)/C(=C/C(=O)c1cccs1)C(=O)N2 | 1.06 µM |
| Cc1ccc(C(=O)C2CCN(CC(=O)Nc3nc(C)cs3)CC2)cc1 | 13.6 µM |
| Cc1nc(SCC(=O)NC2CCCCC2)[nH]c(=O)c1C | < 0.2 µM |
| CCC1C(c2ccccc2)N(C)C(c2ccccc2)CC1(O)c1ccccc1 (configuration not stated) | 23.2 µM |
| CCc1nnc(N/N=C/c2cc(C)c(C)cc2C)n1N | 7.24 µM |
| O=C(OCc1ccccc1)/C(=C(\O)c1ccccc1Br)c1ccc(-c2ccccc2)cn1 | 23.9 µM |
| Cc1cccc(N2CCN(CC(=O)Nc3nccs3)CC2)c1C | 16 µM |
| CCOC(=O)Cn1c(C)c(Br)c(=O)c2cccc(C)c21 | 7.53 µM |
| CCOC(=O)c1sc2nc3n(c(=O)c2c1C)CCC(C)CC3 (configuration not stated) | 17 µM |

| SMILES | IC50 |
| --- | --- |
| Cc1nn(Cc2ccccc2)c(C)c1NC(=O)c1cc2nc(-c3ccco3)cc(C(F)(F)F)n2n1 | 46.5 µM |
| COc1ccccc1N1CCN(c2ccc(-c3ccccc3)nn2)CC1 | 84.4 µM |
| COc1ccc2c(c1)CCc1c(C(=O)Nc3c(C)n(C)n(-c4ccccc4)c3=O)noc1-2 | 14.2 µM |
| C/C(=N\Nc1nc2c(s1)CCCC2)c1ccccc1 | 18.6 µM |
| O=C1Nc2ccccc2/C1=N\N=C\C1=C(N2CCOCC2)C(=C\c2ccccc2)/CC1 | 33.4 µM |
| O=C(c1ccccc1)C1CN(Cc2ccccc2)CCC1(O)c1ccccc1 (configuration not stated) | 9.4 µM |
| N/C(=N\NC(=O)c1sccc1OCc1ccc(Cl)cc1Cl)c1ccccn1 | 15.7 µM |
| Cc1cc(/C=C2\SC(=Nc3ccc(F)cc3)NC2=O)c(C)n1-c1ccc(S(N)(=O)=O)cc1 | 22.4 µM |
| CCN(CC)c1ccc(N)cc1 | 7.15 µM |
| Cc1ccc(S(=O)(=O)/N=C(\CCl)N2CCOCC2)cc1 | 6.44 µM |
| COC(=O)c1ccc(N/C(C)=C/C(=O)c2ccc(C)o2)cc1 | 97.4 µM |
| CC(c1nc2ccccc2c(=O)[nH]1)N(C)CCOc1ccc(Cl)cc1 (configuration not stated) | 40.4 µM |
| CC(C)NC(=O)c1onc(CSc2ccc(F)c(F)c2)c1C(=O)O | 11 µM |
| C=CCOc1c(Br)cc(CNc2nccs2)cc1OC | 22.3 µM |
| Clc1ccc2c(c1)C(c1ccccc1Cl)=NCc1nnc(N3CCN(CCOc4ccccc4)CC3)n1-2 | 43 µM |
| Cc1cnc(NC(=O)NCC2CCCC(CNC(=O)Nc3ncc(C)s3)C2)s1 (configuration not stated) | 24.8 µM |
| CCc1ccc(N=CC23c4ccccc4C(c4ccccc42)C2C(=O)N(c4ccc(OC)cc4)C(=O)C23)cc1 (configuration not stated) | 53.1 µM |
| O=[N+]([O-])c1ccc(N2CCCCC2)s1 | 7.61 µM |
| COCCCN=C1NN=C(c2cc(C)n(Cc3ccco3)c2C)CS1 | 60.9 µM |
| CC(C)(C)c1csc(NC(=O)c2c(F)c(F)c(F)c(F)c2F)n1 | 17.7 µM |

| SMILES | IC50 |
| --- | --- |
| CN(CCCNC(=O)c1cc2c(Cl)nc3ccccc3c2s1)Cc1ccccc1 | 41.1 µM |
| Cn1cnc([N+](=O)[O-])c1Sc1ccc(Br)cc1 | 8.81 µM |
| Cc1oc(-c2cccc(Cl)c2)nc1CN1CCC(C(=O)N2CCN(c3ccccc3F)CC2)CC1 | 20.8 µM |
| OCCCNc1cc(-c2ccnc(Nc3cccc(Cl)c3)n2)ccn1 | 20.8 µM |
| Cc1ccc(C(=O)/C=C/C(=O)c2ccc(C)cc2)cc1 | 2.05 µM |
| CCOC(=O)c1cc(C)nc(Sc2ccc(C)cc2)c1C#N | 4.4 µM |
| CC(C)(C)OC(=O)NCCCCCc1nnc(SCc2ccc(F)cc2)o1 | 14.2 µM |
| OC(CN1CCN(c2ccccn2)CC1)Cn1c2ccccc2c2ccccc21 (configuration not stated) | 36.1 µM |
| c1ccc(CN2CCN(c3nc(NCc4ccco4)c4ccccc4n3)CC2)cc1 | 18.1 µM |
| COc1ccc2nc(NC(=O)C3CCCN(S(=O)(=O)c4cccs4)C3)sc2c1 (configuration not stated) | 18 µM |
| CCOC(=O)c1[nH]c(CN2CCN(c3ccc(OC)cc3)CC2)c(C(=O)OCC)c1C | 23 µM |
| O=C1NCC(O)=C1C=Nc1ccccc1O | 5.93 µM |
| N#CCn1c(CCl)nc2ccccc2c1=O | 5.21 µM |
| CC(=O)N1CCN(c2ccc(OC[C@H]3CO[C@](Cn4ccnc4)(c4ccc(Cl)cc4Cl)O3)cc2)CC1 | 17.5 µM |
| CCc1ccc2oc(-c3ccc(OC)cc3)cc(=Nc3c(C)n(C)n(-c4ccccc4)c3=O)c2c1 | 22.4 µM |
| CCOC(=O)c1ccc(NC(=S)NCCc2ccc(F)cc2)cc1 | 42.4 µM |
| CCCCCCc1cc2cc(C(=O)NCc3ccccc3)c(=N)oc2cc1O | 3.45 µM |
| O=c1c(-c2cnn(-c3ccccc3)c2)coc2cc(O)ccc12 | 12.1 µM |
| Cc1ccc(C)c(C2C(=O)c3ccccc3C2=O)c1 | 3.94 µM |
| CC1(O)CC(c2ccc(Cl)cc2)=NN1C(=O)c1ccc([N+](=O)[O-])cc1 (configuration not stated) | 17.5 µM |

Same assay, conditions: measured here: IC90 growth inhibition

| SMILES | IC90 |
| --- | --- |
| Cc1nc2sccn2c(=O)c1CCN1CCC(=C(c2ccccc2)c2ccc(F)cc2)CC1 | 49.9 µM |
| CC[n+]1c(/C=C/N(C)c2ccccc2)n(-c2ccccc2)c2ccc(-c3nc4ccccc4s3)cc21 | 1.27 µM |

From PubChem BioAssay AID449762 (Southern Research Specialized Biocontainment Screening …, 2010)
